Measurements taken from PubChem BioAssay (NCI).
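Grown in 96-well plates, cells were treated for 48 hours with each compound at five concentrations. Insufficient inhibition: endpoint recorded as highest concentration tested. Abbreviation: GI50, concentration required for 50% inhibition of growth. TGI: concentration producing complete growth inhibition.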

Each molecule was assayed on MDA-MB-468 breast (assay: NCI anticancer screen, dose series, 48 h).

**Q.** `CC1OC(O[C@H]2/C=C/C=C/C=C/C=C/C=C/C=C/C=C/[C@H](C)[C@@H](O)[C@@H](C)[C@H](C)OC(=O)CC(O)CC(O)CCC(O)C(O)CC(O)C[C@]3(O)C[C@H](O)C(C(=O)O)C(C2)O3)C(O)[C@H](N)C1O` (some centres undefined) was tested. Which GI50 did it give?
**A.** Its GI50 is 14.9 µM.

**Q.** What about the TGI of the same molecule?
**A.** The TGI was 32.4 µM.

**Q.** For `COc1ccc(C2[C@@H](Cl)C(=O)N2c2cc(OC)c(OC)c(OC)c2)cc1Cl` (some centres undefined), which GI50 is on record?
**A.** Its GI50 is 0.201 µM.

**Q.** What about the TGI of the same molecule?
**A.** Its TGI is 0.963 µM.

**Q.** For `O=C1NC(=O)C(c2cccc(Cl)c2)=C1Nc1ccc(O)c(Cl)c1`, which GI50 is on record?
**A.** Its GI50 is 5.94 µM.

**Q.** And the TGI?
**A.** The TGI was over 20.3 µM.

**Q.** For `COc1cc2c(c(OC)c1OC)-c1ccc(SC)c(=O)cc1[C@@H](NC1OC(CO)C(O)C(O)C1O)CC2` (some centres undefined), which GI50 is on record?
**A.** The GI50 was 0.0343 µM.

**Q.** What about the TGI of the same molecule?
**A.** The TGI was over 100 µM.

**Q.** `CN1CCC(n2cnc(-c3ccc(F)cc3)c2-c2ccnc(N)n2)CC1` was tested. Which GI50 did it give?
**A.** The GI50 was 3.32 µM.

**Q.** And the TGI?
**A.** The TGI was 21.1 µM.

**Q.** How did the GI50 turn out when `O=c1[nH]cnc2c(C3NC(CO)C(O)C3O)c[nH]c12` (centres undefined) was run?
**A.** Its GI50 is over 100 µM.

**Q.** What about the TGI of the same molecule?
**A.** Its TGI is over 100 µM.

**Q.** Which GI50 does the source give for `CCN1C(=O)N(CC)C2C1NN=c1s/c(=C\c3ccccc3Br)c(=O)n12` (centres undefined) here?
**A.** The GI50 was 0.0352 µM.

**Q.** And the TGI?
**A.** Its TGI is 1.15 µM.

**Q.** With `Cc1nc2ccccc2c(/C=C/c2ccc(Br)cc2)c1C(=O)/C=C/c1ccccc1` as the molecule, how does the GI50 read?
**A.** Its GI50 is 1.98 µM.

**Q.** And the TGI?
**A.** Its TGI is 4.2 µM.

**Q.** With `Cn1cc(-c2nonc2-c2cn(C)c3ccccc23)c2ccccc21` as the molecule, how does the GI50 read?
**A.** Its GI50 is 0.492 µM.

**Q.** What about the TGI of the same molecule?
**A.** Its TGI is over 32.4 µM.

**Q.** Which GI50 does the source give for `CCCCCn1sc(=O)n(Cc2ccc(CNC(=O)OCc3ccc4cccc(O)c4n3)cc2)c1=O` here?
**A.** Its GI50 is 1.71 µM.

**Q.** What about the TGI of the same molecule?
**A.** Its TGI is 3.56 µM.

**Q.** Which results are given for `CCN(Cc1ccc(Cl)s1)c1ccc(CO)c(Cl)c1`?
**A.** GI50: 0.0193 µM; TGI: 0.0526 µM

**Q.** What does the source list for `COc1ccc(/C=N/NC(=O)Cn2c(-c3ccc(S(C)(=O)=O)cc3)nc3cc(Cl)ccc32)cc1`?
**A.** GI50: 1.51 µM; TGI: 9.14 µM

**Q.** With `COc1ccc2c(c1)OC1=C(C(=O)OC1)C2c1cc(OC)c2c(c1)OCO2` (centres undefined) as the molecule, how does the GI50 read?
**A.** The GI50 was 0.0264 µM.

**Q.** And the TGI?
**A.** Its TGI is 0.0987 µM.

**Q.** Which results are given for `CN1CCN(Cc2ccc(NC(=O)c3[nH]ncc3Nc3ncnc4sc5c(c34)CCCC5)cc2)CC1`?
**A.** GI50: 0.476 µM; TGI: 2.3 µM

**Q.** `CC(C)(C)c1ccc(C(=O)Nc2sc3c(c2C(N)=O)CCC(=O)C3)cc1` was tested. Which GI50 did it give?
**A.** Its GI50 is 0.506 µM.

**Q.** And the TGI?
**A.** Its TGI is 2.09 µM.

**Q.** How did the GI50 turn out when `CC(C)=CCC/C(C)=C/CC/C(C)=C/CC/C=C(\C)CC/C=C(\C)CCC(=O)Nc1ccn(C2OC(CO)C(O)C2(F)F)c(=O)n1` (centres undefined) was run?
**A.** The GI50 was 0.185 µM.

**Q.** What about the TGI of the same molecule?
**A.** The TGI was 35.8 µM.

**Q.** Which GI50 does the source give for `Cc1cccc(NC(=O)c2sc3nc4c(cc3c2N)CN(Cc2ccccc2)CC4)c1C` here?
**A.** Its GI50 is 0.151 µM.

**Q.** And the TGI?
**A.** Its TGI is 11.6 µM.

**Q.** With `COc1ccc2cc(-c3c(-c4ccncc4)nc(-c4ccc(S(C)=O)cc4)n3C)ccc2c1` (centres undefined) as the molecule, how does the GI50 read?
**A.** Its GI50 is 3.11 µM.

**Q.** And the TGI?
**A.** Its TGI is over 25 µM.

**Q.** Which results are given for `O=[N+]([O-])c1cc(S(=O)(=O)Oc2ccccc2)ccc1Cl`?
**A.** GI50: 1.83 µM; TGI: 3.64 µM

**Q.** With `O=C(Oc1cccnc1)c1ccsc1Nc1ccnc(C(F)(F)F)c1` as the molecule, how does the GI50 read?
**A.** The GI50 was 1.8 µM.

**Q.** What about the TGI of the same molecule?
**A.** The TGI was 4.4 µM.

**Q.** Which results are given for `COc1ccc(OC)c(Cn2cc3c(c2)-c2oncc2CC3)c1`?
**A.** GI50: 1.2 µM; TGI: 4.37 µM

**Q.** For `CCN(CCO)CC(C)Nc1ccc([N+](=O)[O-])c2sc3ccccc3c(=O)c12` (centres undefined), which GI50 is on record?
**A.** The GI50 was 1.68 µM.

**Q.** And the TGI?
**A.** The TGI was 7.29 µM.

**Q.** How did the GI50 turn out when `CC1(C)N=C(N)N=C(N)N1c1ccc(CCCCc2ccc(S(=O)(=O)F)cc2)c(Cl)c1` was run?
**A.** The GI50 was 0.281 µM.

**Q.** What about the TGI of the same molecule?
**A.** The TGI was 10.8 µM.

**Q.** How did the GI50 turn out when `COC(=O)c1nc(-c2ccccc2)oc1S(=O)(=O)n1nc(C)cc1N` was run?
**A.** Its GI50 is 3.98 µM.

**Q.** And the TGI?
**A.** Its TGI is 16.9 µM.

**Q.** `COc1cc(/C=C/[N+](=O)[O-])cc(Br)c1OC` was tested. Which GI50 did it give?
**A.** Its GI50 is 1.59 µM.

**Q.** What about the TGI of the same molecule?
**A.** Its TGI is 3.28 µM.

**Q.** What does the source list for `Cc1c(C2=C(c3cn(C)c4ccccc34)C(=O)NC2=O)c2ccccc2n1C`?
**A.** GI50: 0.921 µM; TGI: > 22.5 µM

**Q.** Which results are given for `COc1ccc(-c2oc3cc(O)cc(O)c3c(=O)c2OC)cc1O`?
**A.** GI50: 0.565 µM; TGI: 3.45 µM

**Q.** `CCCCn1c(=O)c2c(nc3n2CCCN3CCc2ccc(OCC(=O)NCCN(CC)CC)cc2)n(CCCC)c1=O` was tested. Which GI50 did it give?
**A.** The GI50 was 1.73 µM.

**Q.** What about the TGI of the same molecule?
**A.** The TGI was 6.86 µM.

**Q.** With `COc1ccc(C(=O)N2c3ccccc3Sc3ccccc32)c(OC)c1` as the molecule, how does the GI50 read?
**A.** The GI50 was 0.327 µM.

**Q.** What about the TGI of the same molecule?
**A.** Its TGI is 56.1 µM.

**Q.** Which GI50 does the source give for `C[C@@H]1O[C@@H](O[C@H]2CC[C@@]3(C)[C@H](CCC4[C@@H]3C(O)C[C@]3(C)[C@@H](c5ccc(=O)oc5)CC[C@]43O)C2)[C@H](O)[C@H](O)[C@H]1O` (some centres undefined) here?
**A.** Its GI50 is 0.00594 µM.

**Q.** And the TGI?
**A.** Its TGI is 0.0121 µM.

**Q.** For `O=C(Nc1cccc(Nc2ncc(Br)c(NCCc3cnc[nH]3)n2)c1)N1CCCC1`, which GI50 is on record?
**A.** The GI50 was 0.637 µM.

**Q.** And the TGI?
**A.** The TGI was 9.09 µM.

**Q.** What does the source list for `OC(c1cc2cc(Cl)c(Cl)cc2c2cc(C(F)(F)F)ccc12)C1CCCCN1` (centres undefined)?
**A.** GI50: 1.58 µM; TGI: 2.94 µM

**Q.** Which results are given for `N#CN1CC[C@H](C(=O)Nc2ncc(-c3ccncc3)s2)C1`?
**A.** GI50: < 0.0156 µM; TGI: < 0.0282 µM

**Q.** What does the source list for `CCOP(=O)(OCC)OC[C@]12CC[C@@H](C)[C@H](C)C1C1=CC[C@@H]3[C@@]4(C)CCCNC(C)(C)[C@@H]4CC[C@@]3(C)[C@]1(C)CC2` (some centres undefined)?
**A.** GI50: 1.39 µM; TGI: 2.91 µM

**Q.** How did the GI50 turn out when `CC(C)(C)CN1CCn2c(nc3c(N)nccc32)S1` was run?
**A.** Its GI50 is 5.38 µM.

**Q.** And the TGI?
**A.** Its TGI is 50.3 µM.

**Q.** Which GI50 does the source give for `CC(=O)Oc1ccccc1C(=O)/C=C/c1cccc([N+](=O)[O-])c1` here?
**A.** Its GI50 is 2.03 µM.

**Q.** What about the TGI of the same molecule?
**A.** The TGI was 4 µM.

**Q.** With `CCN1C(=O)N(CC)C2C1NN=c1s/c(=C3\C(=O)N(CCc4ccccc4)c4ccccc43)c(=O)n12` (centres undefined) as the molecule, how does the GI50 read?
**A.** The GI50 was 0.338 µM.

**Q.** And the TGI?
**A.** Its TGI is 2.37 µM.
